In the NIST ThermoML archive (doi:10.1021/je800828y):
Numbers after ± are expanded uncertainties.

Conditions: 351.44 K; Liquid; Ebulliometric method (Recirculating still)

SMILES: CCO [ethanol]
- vapor or sublimation pressure: 101.3 ± 0.1 kPa
